The values below come from publication PMC6627558, “Structures and Bioactivities of Six New Triterpene Glycosides, Psolusosides E, F, G, H, H1, and I and the Corrected Structure of Psolusoside B from the Sea Cucumber Psolus fabricii” (Marine Drugs, 2019).

Data set [1] deals with human colorectal adenocarcinoma HT-29 cells. Briefly: MTS assay, cell viability of HT-29 cells. Conditions: Homo sapiens, 0–20 μM, 24 h. The format is cell-based. Here is the method:
(§1) The museum tetraploid strain of murine ascite Ehrlich carcinoma cells from the All-Russian Oncology Center (Moscow, Russia) was used. The cells were separated from the ascites, which were collected on day 7 after inoculation in mouse CD-1 line. The cells were washed of the ascites triply and resuspended in RPMI-1640 medium containing 8 μg/mL gentamicin (BioloT, St-Petersburg, Russia). Neuroblastoma Neuro 2A cells were cultured in DMEM medium containing 10% fetal bovine serum (FBS), (BioloT, St-Petersburg, Russia) and normal epithelial JB-6 cells were cultured in DMEM medium containing 5% fetal bovine serum (FBS), (BioloT, St-Petersburg, Russia) and 1% penicillin/streptomycine (Invitrogen). The HT-29 (ATCC # HTB-38) human colon cancer cell line was grown in monolayer in McCoy’s 5A medium supplemented with 10% (v/v) heat-inactivated FBS, 2 mM L-glutamine, and 1% penicillin-streptomycin in a humidified atmosphere containing 5% CO2. Cells were maintained in a sterile environment and kept in an incubator at 5% CO2 and 37 °C to promote growth. HT-29 cells were sub-cultured every 3–4 days by rinsing with phosphate buffered saline (PBS), adding trypsin to detach the cells from the tissue culture flask, and transferring 10%–20% of the harvested cells to a new flask containing fresh growth media.
The HT-29 cells (1.0 × 10^4/well) were seeded in 96-well plates for 24 h at 37 °C in 5% CO2 incubator. The cells were treated with the tested substances at concentrations range from 0 to 20 μM for an additional 24 h. Subsequently, cells were incubated with 15 μL MTS reagent for 3 h and the absorbance in each well was measured at 490/630 nm using microplate reader “Power Wave XS” (Bio Tek, Winooski, VT, USA). All the experiments were repeated three times, and the mean absorbance values were calculated. The results are expressed as the percentage of inhibition that produced a reduction in absorbance by compound’s treatment compared to the non-treated cells (control).

The test system is the same in data set [2]. Put plainly: Soft agar assay, colony formation and growth of HT-29 cells. The format is cell-based. The conditions noted are these: Homo sapiens, 336 h, 0–10 μM, 14 days, read-out: Soft Agar Assay ICCF50 (inhibition of colony formation). Here is the method:
as §1
The HT-29 cells (8.0 × 10^3) were seeded in 6-well plate and treated with the tested compounds at concentrations range 0–10 μM in 1 mL of 0.3% Basal Medium Eagle (BME) agar containing 10% FBS, 2mM L-glutamine, and 25 μg/mL gentamicin. The cultures were maintained at 37 °C in a 5% CO2 incubator for 14 days, and the cell’s colonies were scored using a microscope “Motic AE 20” (Scientific Instrument Company, Campbell, CA, USA) and the Motic Image Plus version 2.0 (Scientific Instrument Company, Campbell, CA, USA) computer program.

The nature of data set [3]: Hemolytic activity against mouse erythrocytes. The format is cell-based. Conditions: CD-1, mouse erythrocyte suspension, pH 7.4, 24 h at 37 °C, read-out: Cytotoxicity EC50, Erhythrocytes (hemolytic activity). How it is done: Blood was taken from CD-1 mice (18–20 g). The mice were anesthetized with diethyl ether, their chests were rapidly opened, and blood was collected in cold (4 °C) 10 mM phosphate-buffered saline, pH 7.4 (PBS) without anticoagulant. Erythrocytes were washed 3 times in PBS using at least 10 vol. of washing solution by centrifugation (2000 rpm) for 5 min. Erythrocytes were used at a concentration that provided an optical density of 1.0 at 700 nm for a non-hemolyzed sample. Then, 20 μL of a water solution of test substance with a fixed concentration was added to a well of a 96-well plate containing 180 μL of the erythrocyte suspension. Erythrocyte suspension was incubated with substances for 24 h at 37 °C. After that, the optical density of the obtained solutions was measured and ED50 for hemolytic activity of each compound was calculated.

Data set [4] can be described thus: Cytotoxic activity against ascite form of mouse Ehrlich carcinoma cells (nonspecific esterase / MTT assay). The format is cell-based. The conditions noted are these: ascite form of mouse Ehrlich carcinoma cells; read-out: Cytotoxicity EC50, Ehrlich carcinoma. Here is the method:
as §1
(§2) Cytotoxic activity against ascite form of mouse Ehrlich carcinoma cells was investigated by nonspecific esterase activity assay. In total, 10µL of the test substance solution and 100 μL of the cell suspension were placed into each well of a 96-well microplate. The plate was incubated in a CO2 incubator at 37 °C for 1 or 24 h. A stock solution of the probe fluorescein diacetate (FDA; Sigma, St. Louis, MO, USA) in DMSO (1 mg/mL) was prepared. After incubation of the cells with test compounds, 10 μL of FDA solution (50 μg/mL) was added to each well and the plate was incubated at 37 °C for 15 min. Cells were washed with PBS, and fluorescence was measured with a Fluoroskan Ascent plate reader (Thermo Labsystems, Helsinky, Finland) at λex = 485 nm and λem = 518 nm. All experiments were repeated in triplicate. Cytotoxic activity was expressed as the percent of cell viability. Nonspecific esterase activity assay has been used for determination of cytotoxicity against neuroblastoma Neuro 2A and normal epithelial JB-6 cells.
The solutions of tested substances in different concentrations (20 µL) and cell suspension (200 µL) were added in wells of 96-well plate and incubated over night at 37 °C and 5% CO2. After incubation, the cells were sedimented by centrifugation, 200 µL of medium from each well were collected, and 100 µL of pure medium were added. Then, 10 µL of MTT solution […] (Sigma, St. Louis, MO, USA) were added in each well. The plate was incubated for 4 h, after which 100 µL SDS-HCl were added to each well, and the plate was incubated at 37 °C for 4–18 h. Optical density was measured at 570 nm and 630–690 nm. Cytotoxic activity of the substances was calculated as the concentration that caused 50% metabolic cell activity inhibition (IC50). The MTT assay has been used for determination of cytotoxic activity against Ehrlich carcinoma cells.

The nature of data set [5]: Cytotoxicity against neuroblastoma Neuro 2A cells (nonspecific esterase activity assay). The format is cell-based, mouse. The conditions noted are these: mouse neuroblastoma Neuro 2A cells. Here is the method: as §1, §2
Data set [6] concerns mouse neuroblastoma Neuro 2A cells. The data set is described as above. Type of data set: cell-based. The conditions noted are these: Neuro 2A cells. How it is done: as §1, §2
A short description of data set [7]: Cytotoxicity against normal epithelial JB-6 cells (nonspecific esterase activity assay). The format is cell-based, mouse. The conditions noted are these: mouse, normal epithelial JB-6 cells. Here is the method: as §1, §2
The test system of data set [8] is normal epithelial JB-6 cells. The description is as above. The format is cell-based, mouse. Conditions: JB-6 cells. Here is the method:
as §1, §2

Structures can show the parent of a compound that is named as a salt.

`C=C(C)CCC[C@](C)(OC(C)=O)[C@H]1[C@@H]2C[C@@]3(C)C4=CC[C@H]5C(C)(C)[C@@H](O[C@@H]6OC[C@@H](O[C@@H]7O[C@H](CO)[C@@H](O)[C@H](O)[C@H]7OS(=O)(=O)O)[C@H](O)[C@H]6O[C@@H]6O[C@H](CO)[C@@H](O[C@@H]7O[C@H](COS(=O)(=O)O)[C@@H](O)[C@H](O)[C@H]7O)[C@H](O)[C@H]6O)CC[C@]5(C)[C@@H]4CC[C@]13C(=O)O2` [psolusoside B (1), 3β-O-{6-O-sodium sulfate-β-D-glucopyranosyl-(1→4)-β-D-glucopyranosyl-(1→2)-[2-O-sodium sulfate-β-D-glucopyranosyl-(1→4)]-β-D-xylopyranosyl}-9βH,20(S)-acetoxylanosta-7,25-diene-18(16)-lactone]: the IC50 is over 20 µM in data set [1] and over 10 µM in data set [2].

For orientation: EC50 means the concentration needed to bring the measured effect to its halfway point. `C=C(C)CCC[C@]1(C)OC(=O)[C@]23CC=C4[C@@H](CC[C@H]5C(C)(C)[C@@H](O[C@@H]6OC[C@@H](O)[C@H](O)[C@H]6O[C@@H]6O[C@H](CO)[C@@H](O[C@@H]7O[C@H](COS(=O)(=O)O)[C@@H](O)[C@H](O[C@@H]8O[C@H](COS(=O)(=O)O)[C@@H](O)[C@H](OC)[C@H]8O)[C@H]7O)[C@H](O)[C@H]6O)CC[C@]45C)[C@]2(C)CC(=O)[C@@H]31` [Psolusoside G (4), 3β-O-[6-O-sodium-sulfate-3-O-methyl-β-D-glucopyranosyl-(1→3)-6-O-sodium-sulfate-β-D-glucopyranosyl-(1→4)-β-D-glucopyranosyl-(1→2)-β-D-xylopyranosyl]-16-ketoholosta-9(11),25-diene]: the EC50 at 24 h in data set [3] is 4.2 µM. Further, the figures for the EC50 in data set [4], in data set [5] and in data set [7] were 98.3 µM, 7.3 µM and over 100 µM, respectively. Further, the “activity against Neuro 2A cells (in words)” value in data set [6] is listed as “high activity”. Moreover, the “cytotoxicity against normal JB-6 cells (in words)” value in data set [8] is “not cytotoxic”.

Take `C=C(C)CCC[C@]1(C)OC(=O)[C@]23CC=C4[C@@H](CC[C@H]5C(C)(C)[C@@H](O[C@@H]6OC[C@@H](O)[C@H](O)[C@H]6O[C@@H]6O[C@H](C)[C@@H](O[C@@H]7O[C@H](CO)[C@@H](O)[C@H](O[C@@H]8O[C@H](COS(=O)(=O)O)[C@@H](O)[C@H](OC)[C@H]8O)[C@H]7O)[C@H](O)[C@H]6O)CC[C@]45C)[C@]2(C)CC(=O)[C@@H]31` [Psolusoside F (3), 3β-O-[6-O-sodium-sulfate-3-O-methyl-β-D-glucopyranosyl-(1→3)-β-D-glucopyranosyl-(1→4)-β-D-quinovopyranosyl-(1→2)-β-D-xylopyranosyl]-16-ketoholosta-9(11),25-diene]: the EC50 at 24 h in data set [3] was 2.8 µM. In addition, the results for the EC50 in data set [4], in data set [5] and in data set [7] were 96.2 µM, 10.8 µM and 23.8 µM, respectively. Besides, the figures for the IC50 in data set [1] and in data set [2] were over 20 µM and 0.5 ± 0.03 µM, respectively.

Consider `C=C(C)CCC[C@]1(C)OC(=O)[C@]23CC[C@@H]4C(=CC[C@H]5C(C)(C)[C@@H](O[C@@H]6OC[C@@H](O)[C@H](O)[C@H]6O[C@@H]6O[C@H](CO)[C@@H](O[C@@H]7O[C@H](COS(=O)(=O)O)[C@@H](O)[C@H](O)[C@H]7O)[C@H](O)[C@H]6O)CC[C@]45C)[C@]2(C)CC[C@@H]31` [Psolusoside H1 (6), 3β-O-[6-O-sodium-sulfate-β-D-glucopyranosyl-(1→4)-β-D-glucopyranosyl-(1→2)-β-D-xylopyranosyl]-holosta-7,25-diene], for which, in data set [3], the concentration giving a half-maximal response (EC50) at 24 h amounted to 2.7 µM. In addition, the EC50 is 92.5 µM in data set [4], 10.7 µM in data set [5] and 32.3 µM in data set [7]. The values for the IC50 in data set [1] and in data set [2] were over 20 µM and 9 ± 0.3 µM, respectively.

For the compound `C=C(C)CCC[C@]1(C)OC(=O)[C@]23CC[C@@H]4C(=CC[C@H]5C(C)(C)[C@@H](O[C@@H]6OC[C@@H](O)[C@H](O)[C@H]6O[C@@H]6O[C@H](CO)[C@@H](O[C@@H]7O[C@H](COS(=O)(=O)O)[C@@H](O)[C@H](O)[C@H]7O)[C@H](O)[C@H]6O)CC[C@]45C)[C@]2(C)CC(=O)[C@@H]31` [Psolusoside H (5), 3β-O-[6-O-sodium-sulfate-β-D-glucopyranosyl-(1→4)-β-D-glucopyranosyl-(1→2)-β-D-xylopyranosyl]-16-ketoholosta-7,25-diene], in data set [3], the EC50 at 24 h is 2.5 µM. The EC50 in data set [4] is over 100 µM; in data set [5] it was 47.5 µM; in data set [7], 43.2 µM. For the same compound, the IC50 was over 20 µM in data set [1] and over 10 µM in data set [2].

`C=C(C)CCC[C@]1(C)OC(=O)[C@]23CC=C4[C@@H](CC[C@H]5C(C)(C)[C@@H](O[C@@H]6OC[C@@H](O)[C@H](O)[C@H]6O[C@@H]6O[C@H](C)[C@@H](O[C@@H]7O[C@H](COS(=O)(=O)O)[C@@H](O)[C@H](O[C@@H]8O[C@H](CO)[C@@H](O)[C@H](OC)[C@H]8O)[C@H]7O)[C@H](O)[C@H]6O)CC[C@]45C)[C@]2(C)CC(=O)[C@@H]31` [Psolusoside E (2), 3β-O-[3-O-methyl-β-D-glucopyranosyl-(1→3)-6-O-sodium-sulfate-β-D-glucopyranosyl-(1→4)-β-D-quinovopyranosyl-(1→2)-β-D-xylopyranosyl]-16-ketoholosta-9(11),25-diene]: in data set [3], the EC50 at 24 h was 0.23 µM. For the same compound, the results for the EC50 in data set [4] and in data set [5] were 55.8 µM and 3.96 µM, respectively. Moreover, the IC50 in data set [1] is over 20 µM; in data set [2] it was 0.1 ± 0.03 µM.
